According to patent publication US9468209B2, “Method for eradicating weeds with derivatives of 3-acetyl-5-sec-butyl-4-hydroxy-3-pyrrolin-2-one” (priority 2012, dated 2016):

How the values were obtained:
photosystem II = test: PSII oxygen evolution / electron transfer activity of treated Crofton weed leaves; format: biochemical; conditions: 50 μg/mL, strong light 12 hours
Description: (§1) Compounds 10-57 were dissolved in small amount of methanol. The solutions were then diluted with distilled water to a concentration of 50 μg/mL. A mixture of methanol and water in the same ratio as the sample solution was also prepared and used as control in the experiment. The healthy leaves of Crofton weed were washed in water for 30 minutes and then rinsed with distilled water. The clean and tissue dried leaves were placed in petri dish with the back-side of the leaves facing up. Wet filter paper was also placed in the in petri dish for moisture control. Water, methanol and chemical solutions of the analogues were applied to the back-side of each leaf. Test sample was then placed in vacuum chamber at 25° C. for 15 min followed by exposure to the strong light (400 μM m^−2 s^−1) for 12 hours. The leaf sample went through a series of test, and the Hill reaction rate, the electron transfer activity and fluorescence of chlorophyll were measured. Four leaves were used for each treatment and each test was repeated three times.

Hill reaction = Hill reaction activity of treated Crofton weed leaves; format: biochemical; conditions: 50 μg/mL, strong light 12 hours
Description: as §1

Dichondra repens = test: Leaf piece damage test; format: in vivo; parameters: key: 4: The leaf completely dead; 3: Two third of the leaf withered; 2: One half of the leaf withered; 1: Only edge of the leaf withered; 0: Not damage at all; conditions: 50 μg/mL, 4 days
Description: (§2) Compounds 7, 14, 15, 16, 40, 45, 48 and 53 were dissolved individually in small amount of methanol, and diluted with distilled water to concentration of 50 μg/mL. Methanol water solution and pure water were used as control. A piece of 5 mm leaf was taken from the second leaf of weed sample and was treated with the solution three times. 5 pieces of the leaf were prepared for each treatment. The damage data were collected 4 days later. The measurement of damage level is described in the Table 9.
(§3) The measurement of the plant damage was calculated by the formula: Damage Index=Σ(damage level×number of plants)×100/4/number of plants in each treatment.

[1] = system: Japanese false bindweed (Calystegia hederacea); test: Leaf piece damage test; format: in vivo; parameters: key: 4: The leaf completely dead; 3: Two third of the leaf withered; 2: One half of the leaf withered; 1: Only edge of the leaf withered; 0: Not damage at all; conditions: 50 μg/mL, 4 days
Description: as §2, §3

Commelina bengalensis = test: Leaf piece damage test; format: in vivo; parameters: key: 4: The leaf completely dead; 3: Two third of the leaf withered; 2: One half of the leaf withered; 1: Only edge of the leaf withered; 0: Not damage at all; conditions: 50 μg/mL, 4 days
Description: as §2, §3

Big Bristlegass = test: Leaf piece damage test; format: in vivo; parameters: key: 4: The leaf completely dead; 3: Two third of the leaf withered; 2: One half of the leaf withered; 1: Only edge of the leaf withered; 0: Not damage at all; conditions: 50 μg/mL, 4 days
Description: as §2, §3

[2] = system: Alligator weed (Alternanthera philoxeroides); test: Leaf piece damage test; format: in vivo; parameters: key: 4: The leaf completely dead; 3: Two third of the leaf withered; 2: One half of the leaf withered; 1: Only edge of the leaf withered; 0: Not damage at all; conditions: 50 μg/mL, 4 days
Description: as §2, §3

Rumex japonicus = test: Leaf piece damage test; format: in vivo; parameters: key: 4: The leaf completely dead; 3: Two third of the leaf withered; 2: One half of the leaf withered; 1: Only edge of the leaf withered; 0: Not damage at all; conditions: 50 μg/mL, 4 days
Description: as §2, §3

Abrtilon theophrasti = test: Leaf piece damage test; format: in vivo; parameters: key: 4: The leaf completely dead; 3: Two third of the leaf withered; 2: One half of the leaf withered; 1: Only edge of the leaf withered; 0: Not damage at all; conditions: 50 μg/mL, 4 days
Description: as §2, §3

Duchesnea indica = test: Leaf piece damage test; format: in vivo; parameters: key: 4: The leaf completely dead; 3: Two third of the leaf withered; 2: One half of the leaf withered; 1: Only edge of the leaf withered; 0: Not damage at all; conditions: 50 μg/mL, 4 days
Description: as §2, §3

Keng stiffgrass = test: Leaf piece damage test; format: in vivo; parameters: key: 4: The leaf completely dead; 3: Two third of the leaf withered; 2: One half of the leaf withered; 1: Only edge of the leaf withered; 0: Not damage at all; conditions: 50 μg/mL, 4 days
Description: as §2, §3

[3] = system: Aster ageratoides var. scaberulus; test: Leaf piece damage test; format: in vivo; parameters: key: 4: The leaf completely dead; 3: Two third of the leaf withered; 2: One half of the leaf withered; 1: Only edge of the leaf withered; 0: Not damage at all; conditions: 50 μg/mL, 4 days
Description: as §2, §3

Lapsana apogonoides = test: Leaf piece damage test; format: in vivo; parameters: key: 4: The leaf completely dead; 3: Two third of the leaf withered; 2: One half of the leaf withered; 1: Only edge of the leaf withered; 0: Not damage at all; conditions: 50 μg/mL, 4 days
Description: as §2, §3

Cyperus rotundus = test: Leaf piece damage test; format: in vivo; parameters: key: 4: The leaf completely dead; 3: Two third of the leaf withered; 2: One half of the leaf withered; 1: Only edge of the leaf withered; 0: Not damage at all; conditions: 50 μg/mL, 4 days
Description: as §2, §3

Lamium amplexicaule = test: Leaf piece damage test; format: in vivo; parameters: key: 4: The leaf completely dead; 3: Two third of the leaf withered; 2: One half of the leaf withered; 1: Only edge of the leaf withered; 0: Not damage at all; conditions: 50 μg/mL, 4 days
Description: as §2, §3

[4] = system: fluorescence of chlorophyll; test: Fluorescence of chlorophyll of treated Crofton weed leaves; format: biochemical; conditions: 50 μg/mL, strong light 12 hours
Description: as §1

| SMILES | PSII Activity of oxygen evolution (photosystem II) [uMO2/mgChlh] | Activity of Hill Reaction (Hill reaction) [uMO2/mgChlh] | Damage level (Dichondra repens) | Damage level [1] | Damage level (Commelina bengalensis) | Damage level (Big Bristlegass) | Damage level [2] | Damage level (Rumex japonicus) | Damage level (Abrtilon theophrasti) | Damage level (Duchesnea indica) | Damage level (Keng stiffgrass) | Damage level [3] | Damage level (Lapsana apogonoides) | Damage level (Cyperus rotundus) | Damage level (Lamium amplexicaule) | Fv/Fm [4] |
| --- | --- | --- | --- | --- | --- | --- | --- | --- | --- | --- | --- | --- | --- | --- | --- | --- |
| CCCCC1NC(=O)C(C(C)=O)=C1O (stereo not shown) [Compound 14] | 34.01 | 67.37 | 2 | 3 | 3 | 2 | 3 | 1 | 2 | 2 | 3 | 3 | 3 | 2 | 2 | 0.79 |
| CCCCCC1NC(=O)C(C(C)=O)=C1O (stereo not shown) [Compound 15] | 31.26 | 62.77 | 2 | 3 | 3 | 2 | 2 | 2 | 2 | 3 | 3 | 3 | 2 | 2 | 3 | 0.78 |
| CCCCCCC1NC(=O)C(C(C)=O)=C1O (stereo not shown) [Compound 16] | 30.00 | 61.43 | 3 | 4 | 3 | 3 | 3 | 2 | 3 | 2 | 3 | 4 | 3 | 2 | 2 | 0.83 |
| CCCC(Cl)C1NC(=O)C(C(C)=O)=C1O (stereo not shown) [Compound 40] | 24.00 | 46.20 | 3 | 3 | 3 | 3 | 3 | 2 | 3 | 2 | 3 | 3 | 3 | 2 | 3 | 0.82 |
| CCC(C)C1NC(=O)C(C(=O)CCF)=C1O (stereo not shown) [Compound 44] | 40.75 | 59.15 | 2 | 4 | 3 | 2 | 4 | 3 | 2 | 3 | 3 | 4 | 3 | 2 | 3 | 0.79 |
| CCC(C)C1NC(=O)C(C(=O)CCc2cc(Cl)cc(Cl)c2)=C1O (stereo not shown) [Compound 48] |  |  | 3 | 4 | 4 | 3 | 4 | 2 | 3 | 3 | 4 | 4 | 4 | 2 | 2 |  |
| CCCC(C#N)C1NC(=O)C(=C(C)O)C1=O (stereo not shown) [Compound 53] | 32.12 | 42.72 | 2 | 4 | 3 | 3 | 3 | 3 | 3 | 3 | 4 | 4 | 3 | 2 | 2 | 0.79 |
